Values quoted from earlier work as cited in paper PMC10593844, “Structure-function analyses reveal key molecular determinants of HIV-1 CRF01_AE resistance to the entry inhibitor temsavir” (Nature Communications, 2023).

What was measured:
[1] = test system: laboratory-adapted NL4-3 HIV-1 strain; parameters: method as in PMID 30604750; settings: cited from earlier work
CRF01_AE strains = test system: CRF01_AE strains; parameters: method as in PMID 30604750; settings: range over CRF01_AE strains; cited from earlier work

For `COc1cnc(-c2csc(CN(C)CCCN(C)C)n2)c2[nH]cc(C(=O)C(=O)N3CCC(=C(C#N)c4ccccc4)CC3)c12` [BMS-814508], the “fold greater inhibition than temsavir” value [1] is given as 4 fold.

In the case of `COc1cnc(-c2csc(C(=O)NCCO)n2)c2[nH]cc(C(=O)C(=O)N3CCC(=C(C#N)c4ccccc4)CC3)c12` [BMS-818251], the IC50 (CRF01_AE strains) is listed as 32 to 733 nM and the “fold greater inhibition than temsavir” value [1] is listed as ~ 100 fold.
